# Read-outs that look alike come from different tables or passages of the source.
# Experiments:
# hCE1 (CES1) = settings: hCE1 relative to hiCE; cited from earlier work
# [1] = system: carboxylesterases (CE) in human liver microsomal extracts; assay: CE activity; type: biochemical; settings: 10μM benzil
# [2] = system: carboxylesterases (hiCE, hCE1) in human liver microsomal extracts; type: biochemical; settings: 10μM benzil
# [3] = liver microsomal extracts, typical
smiles,measurement,setting,value
"CCc1c2c(nc3ccc(OC(=O)N4CCC(N5CCCCC5)CC4)cc13)-c1cc3c(c(=O)n1C2)COC(=O)[C@]3(O)CC [CPT-11, 7-ethyl-10-[4-(1-piperidino)-1-piperidino]carbonyloxycamptothecin]","Km for CPT-11, hCE1 higher than hiCE",hCE1 (CES1),~ 25 fold
O=C(C(=O)c1ccccc1)c1ccccc1 [benzil],CE activity + benzil,[1]; liver microsomal extract HG03,640 ± 97 nmol/mg/min
same,Loss in CE activity + benzil,[1]; liver microsomal extract HG03,5935 nmol/mg/min
same,Loss in CE activity + benzil [%],[1]; liver microsomal extract HG03,90.3%
same,CE activity + benzil,[1]; liver microsomal extract HG74,854 ± 97 nmol/mg/min
same,Loss in CE activity + benzil,[1]; liver microsomal extract HG74,6353 nmol/mg/min
same,Loss in CE activity + benzil [%],[1]; liver microsomal extract HG74,88.2%
same,CE activity + benzil,[1]; liver microsomal extract HG93,521 ± 86 nmol/mg/min
same,Loss in CE activity + benzil,[1]; liver microsomal extract HG93,4207 nmol/mg/min
same,Loss in CE activity + benzil [%],[1]; liver microsomal extract HG93,89.0%
same,CE activity + benzil,[1]; liver microsomal extract HG95,469 ± 45 nmol/mg/min
same,Loss in CE activity + benzil,[1]; liver microsomal extract HG95,4656 nmol/mg/min
same,Loss in CE activity + benzil [%],[1]; liver microsomal extract HG95,90.9%
same,CE activity + benzil,[1]; liver microsomal extract HG103,448 ± 25 nmol/mg/min
same,Loss in CE activity + benzil,[1]; liver microsomal extract HG103,3258 nmol/mg/min
same,Loss in CE activity + benzil [%],[1]; liver microsomal extract HG103,87.9%
same,CE activity + benzil,[1]; liver microsomal extract HH13,389 ± 41 nmol/mg/min
same,Loss in CE activity + benzil,[1]; liver microsomal extract HH13,504 nmol/mg/min
same,Loss in CE activity + benzil [%],[1]; liver microsomal extract HH13,56.4%
same,CE activity + benzil,[1]; liver microsomal extract HH61,406 ± 21 nmol/mg/min
same,Loss in CE activity + benzil,[1]; liver microsomal extract HH61,5472 nmol/mg/min
same,Loss in CE activity + benzil [%],[1]; liver microsomal extract HH61,93.1%
same,CE activity + benzil,[1]; liver microsomal extract HH74,377 ± 7.8 nmol/mg/min
same,Loss in CE activity + benzil,[1]; liver microsomal extract HH74,3329 nmol/mg/min
same,Loss in CE activity + benzil [%],[1]; liver microsomal extract HH74,89.8%
same,CE activity + benzil,[1]; liver microsomal extract HK37,476 ± 58 nmol/mg/min
same,Loss in CE activity + benzil,[1]; liver microsomal extract HK37,5856 nmol/mg/min
same,Loss in CE activity + benzil [%],[1]; liver microsomal extract HK37,92.5%
same,CE activity + benzil,[1]; liver microsomal extract SD003,439 ± 42 nmol/mg/min
same,Loss in CE activity + benzil,[1]; liver microsomal extract SD003,4804 nmol/mg/min
same,Loss in CE activity + benzil [%],[1]; liver microsomal extract SD003,91.6%
same,CE activity + benzil,[1]; liver microsomal extract SD004,552 ± 35 nmol/mg/min
same,Loss in CE activity + benzil,[1]; liver microsomal extract SD004,5070 nmol/mg/min
same,Loss in CE activity + benzil [%],[1]; liver microsomal extract SD004,90.2%
same,CE activity + benzil,[1]; liver microsomal extract SD104,507 ± 48 nmol/mg/min
same,Loss in CE activity + benzil,[1]; liver microsomal extract SD104,4881 nmol/mg/min
same,Loss in CE activity + benzil [%],[1]; liver microsomal extract SD104,90.6%
same,CE activity + benzil,[1]; liver microsomal extract SD120,367 ± 27 nmol/mg/min
same,Loss in CE activity + benzil,[1]; liver microsomal extract SD120,4128 nmol/mg/min
same,Loss in CE activity + benzil [%],[1]; liver microsomal extract SD120,91.8%
same,CE activity + benzil,[1]; liver microsomal extract SD123,544 ± 29 nmol/mg/min
same,Loss in CE activity + benzil,[1]; liver microsomal extract SD123,5401 nmol/mg/min
same,Loss in CE activity + benzil [%],[1]; liver microsomal extract SD123,90.9%
same,CE activity + benzil,[1]; liver microsomal extract SD124,268 ± 11 nmol/mg/min
same,Loss in CE activity + benzil,[1]; liver microsomal extract SD124,3140 nmol/mg/min
same,Loss in CE activity + benzil [%],[1]; liver microsomal extract SD124,92.1%
same,CE activity + benzil,[1]; liver microsomal extract SD128,713 ± 2.7 nmol/mg/min
same,Loss in CE activity + benzil,[1]; liver microsomal extract SD128,5600 nmol/mg/min
same,Loss in CE activity + benzil [%],[1]; liver microsomal extract SD128,88.7%
same,CE activity + benzil,[1]; liver microsomal extract SD132,935 ± 79 nmol/mg/min
same,Loss in CE activity + benzil,[1]; liver microsomal extract SD132,7259 nmol/mg/min
same,Loss in CE activity + benzil [%],[1]; liver microsomal extract SD132,88.6%
same,CE activity + benzil,[1]; liver microsomal extract SD134,322 ± 43 nmol/mg/min
same,Loss in CE activity + benzil,[1]; liver microsomal extract SD134,220 nmol/mg/min
same,Loss in CE activity + benzil [%],[1]; liver microsomal extract SD134,40.6%
same,CE activity + benzil,[1]; liver microsomal extract SD136,314 ± 35 nmol/mg/min
same,Loss in CE activity + benzil,[1]; liver microsomal extract SD136,2882 nmol/mg/min
same,Loss in CE activity + benzil [%],[1]; liver microsomal extract SD136,90.1%
same,reduction of CE activity,[1]; [3],80–90%
same,CPT-11 hydrolysis + benzil,[2]; liver microsomal extract HG03,6.62 ± 0.16 pmol/mg/h
same,Loss in CPT-11 hydrolysis + benzil,[2]; liver microsomal extract HG03,37.6 pmol/mg/h
same,Loss in CPT-11 hydrolysis + benzil [%],[2]; liver microsomal extract HG03,85%
same,CPT-11 hydrolysis + benzil,[2]; liver microsomal extract HG74,6.25 ± 0.13 pmol/mg/h
same,Loss in CPT-11 hydrolysis + benzil,[2]; liver microsomal extract HG74,33.6 pmol/mg/h
same,Loss in CPT-11 hydrolysis + benzil [%],[2]; liver microsomal extract HG74,84.3%
same,CPT-11 hydrolysis + benzil,[2]; liver microsomal extract HG93,4.58 ± 0.10 pmol/mg/h
same,Loss in CPT-11 hydrolysis + benzil,[2]; liver microsomal extract HG93,26.0 pmol/mg/h
same,Loss in CPT-11 hydrolysis + benzil [%],[2]; liver microsomal extract HG93,85.0%
same,CPT-11 hydrolysis + benzil,[2]; liver microsomal extract HG95,5.39 ± 0.09 pmol/mg/h
same,Loss in CPT-11 hydrolysis + benzil,[2]; liver microsomal extract HG95,19.1 pmol/mg/h
same,Loss in CPT-11 hydrolysis + benzil [%],[2]; liver microsomal extract HG95,78.0%
same,CPT-11 hydrolysis + benzil,[2]; liver microsomal extract HG103,4.22 ± 0.10 pmol/mg/h
same,Loss in CPT-11 hydrolysis + benzil,[2]; liver microsomal extract HG103,28.3 pmol/mg/h
same,Loss in CPT-11 hydrolysis + benzil [%],[2]; liver microsomal extract HG103,87.0%
same,CPT-11 hydrolysis + benzil,[2]; liver microsomal extract HH13,3.94 ± 0.12 pmol/mg/h
same,Loss in CPT-11 hydrolysis + benzil,[2]; liver microsomal extract HH13,30.0 pmol/mg/h
same,Loss in CPT-11 hydrolysis + benzil [%],[2]; liver microsomal extract HH13,88.4%
same,CPT-11 hydrolysis + benzil,[2]; liver microsomal extract HH61,2.80 ± 0.007 pmol/mg/h
same,Loss in CPT-11 hydrolysis + benzil,[2]; liver microsomal extract HH61,19.4 pmol/mg/h
same,Loss in CPT-11 hydrolysis + benzil [%],[2]; liver microsomal extract HH61,87.4%
same,CPT-11 hydrolysis + benzil,[2]; liver microsomal extract HH74,2.49 ± 0.04 pmol/mg/h
same,Loss in CPT-11 hydrolysis + benzil,[2]; liver microsomal extract HH74,12.9 pmol/mg/h
same,Loss in CPT-11 hydrolysis + benzil [%],[2]; liver microsomal extract HH74,83.8%
same,CPT-11 hydrolysis + benzil,[2]; liver microsomal extract HK37,4.31 ± 0.02 pmol/mg/h
same,Loss in CPT-11 hydrolysis + benzil,[2]; liver microsomal extract HK37,31.0 pmol/mg/h
same,Loss in CPT-11 hydrolysis + benzil [%],[2]; liver microsomal extract HK37,87.8%
same,CPT-11 hydrolysis + benzil,[2]; liver microsomal extract SD003,8.00 ± 0.01 pmol/mg/h
same,Loss in CPT-11 hydrolysis + benzil,[2]; liver microsomal extract SD003,46.6 pmol/mg/h
same,Loss in CPT-11 hydrolysis + benzil [%],[2]; liver microsomal extract SD003,85.4%
same,CPT-11 hydrolysis + benzil,[2]; liver microsomal extract SD004,4.38 ± 0.07 pmol/mg/h
same,Loss in CPT-11 hydrolysis + benzil,[2]; liver microsomal extract SD004,29.5 pmol/mg/h
same,Loss in CPT-11 hydrolysis + benzil [%],[2]; liver microsomal extract SD004,87.1%
same,CPT-11 hydrolysis + benzil,[2]; liver microsomal extract SD104,3.89 ± 0.32 pmol/mg/h
same,Loss in CPT-11 hydrolysis + benzil,[2]; liver microsomal extract SD104,15.6 pmol/mg/h
same,Loss in CPT-11 hydrolysis + benzil [%],[2]; liver microsomal extract SD104,80.0%
same,CPT-11 hydrolysis + benzil,[2]; liver microsomal extract SD120,6.00 ± 0.20 pmol/mg/h
same,Loss in CPT-11 hydrolysis + benzil,[2]; liver microsomal extract SD120,37.8 pmol/mg/h
same,Loss in CPT-11 hydrolysis + benzil [%],[2]; liver microsomal extract SD120,86.4%
same,CPT-11 hydrolysis + benzil,[2]; liver microsomal extract SD123,4.00 ± 0.09 pmol/mg/h
same,CPT-11 hydrolysis + benzil,[2]; liver microsomal extract SD124,5.04 ± 0.09 pmol/mg/h
same,Loss in CPT-11 hydrolysis + benzil,[2]; liver microsomal extract SD124,22.1 pmol/mg/h
same,Loss in CPT-11 hydrolysis + benzil [%],[2]; liver microsomal extract SD124,81.4%
same,CPT-11 hydrolysis + benzil,[2]; liver microsomal extract SD128,4.03 ± 0.01 pmol/mg/h
same,Loss in CPT-11 hydrolysis + benzil,[2]; liver microsomal extract SD128,25.5 pmol/mg/h
same,Loss in CPT-11 hydrolysis + benzil [%],[2]; liver microsomal extract SD128,86.4%
same,CPT-11 hydrolysis + benzil,[2]; liver microsomal extract SD132,4.30 ± 0.01 pmol/mg/h
same,Loss in CPT-11 hydrolysis + benzil,[2]; liver microsomal extract SD132,22.3 pmol/mg/h
same,Loss in CPT-11 hydrolysis + benzil [%],[2]; liver microsomal extract SD132,83.9%
same,CPT-11 hydrolysis + benzil,[2]; liver microsomal extract SD134,2.57 ± 0.03 pmol/mg/h
same,Loss in CPT-11 hydrolysis + benzil,[2]; liver microsomal extract SD134,14.9 pmol/mg/h
same,Loss in CPT-11 hydrolysis + benzil [%],[2]; liver microsomal extract SD134,85.3%
same,CPT-11 hydrolysis + benzil,[2]; liver microsomal extract SD136,7.76 ± 0.18 pmol/mg/h
same,Loss in CPT-11 hydrolysis + benzil,[2]; liver microsomal extract SD136,47.6 pmol/mg/h
same,Loss in CPT-11 hydrolysis + benzil [%],[2]; liver microsomal extract SD136,86.0%
same,reduction of yields of SN-38 produced,[2]; [3],80–90%
